The nature of the test: Sigma receptor binding was determined by labeling with radioligand [3H](+)-pentazocine on frozen membranes obtained from frozen guinea pig brain.

pIC50: −log10 of the molar value.

For `Fc1ccc(C(OCCN2CCN(C/C=C/c3ccccc3)CC2)c2ccc(F)cc2)cc1`, the pIC50 – broadly, the IC50 on a negative log10 scale, so that one unit is a factor of ten – was 7.29.

Turning to `Fc1ccc(C(OCCN2CCN(CCCc3ccco3)CC2)c2ccc(F)cc2)cc1` [1-{2-[Bis-(4-fluoro-phenyl)-methoxy]-ethyl}-4-(3-furan-2-yl-propyl)-piperazine], the pIC50 is 7.21.

`Fc1ccc(C(OCCN2CCN(CCCc3cccnc3)CC2)c2ccc(F)cc2)cc1` [1-{2-[Bis-(4-fluoro-phenyl)-methoxy]-ethyl}-4-(3-pyridin-3-yl-propyl)-piperazine] gave a pIC50 of 7.10.

Regarding `Fc1ccc(C(OCCN2CCN(CCCc3cccs3)CC2)c2ccc(F)cc2)cc1` [1-{2-[Bis-(4-fluoro-phenyl)-methoxy]-ethyl}-4-(3-thiophen-2-yl-propyl)-piperazine], the pIC50 was 7.42.

In turn, `Fc1ccc(C(OCCN2CCN(C/C=C/c3ccco3)CC2)c2ccc(F)cc2)cc1` [1-{2-[Bis-(4-fluoro-phenyl)-methoxy]-ethyl}-4-((E)-3-furan-2-yl-allyl)-piperazine] gave a pIC50 of 7.37.

As for `Fc1ccc(C(OCCN2CCN(C/C=C/c3cccnc3)CC2)c2ccc(F)cc2)cc1` [1-{2-[Bis-(4-fluoro-phenyl)-methoxy]-ethyl}-4-((E)-3-pyridin-3-yl-allyl)-piperazine], the pIC50 was 7.23.

With `Fc1ccc(C(OCCN2CCN(C/C=C/c3cccs3)CC2)c2ccc(F)cc2)cc1` [1-{2-[Bis-(4-fluoro-phenyl)-methoxy]-ethyl}-4-((E)-3-thiophen-2-yl-allyl)-piperazine], the pIC50 was 7.39.

(Values after BindingDB's records for doi:10.1021/jm9606599 (National Institute of Diabetes and Digestive and Kidney …, 1997).)
